In patent US20120225933A1, “REGULATED EXPRESSION SYSTEMS” (priority 2009, published 2012) one finds dox-mediated toxicity data, which are given here for one compound.

This series can be described thus: Toxicity of the inducer doxycycline in mice. Particulars: 200 mg/kg dox i.p.; also seen in control mice without vector. In kind it is in vivo, BALB/c mice. As for the experimental part: In view of the fact that the luciferase activity levels obtained in the induced state were very low, the decision was made to increase the dose of inducer. To this end, two consecutive doses of 100 and 200 mg/kg of dox were administered by i.p. route, separated by a 14-day period.
The luciferase activity in the hepatic area was measured at 24 hours post-induction. […] These symptoms were also observed in the control mice, those without a vector. The system's maximum rate of induction is reached at a dose of 100 mg/kg of dox, and is approximately 10-fold.

Consider `C[C@H]1c2cccc(O)c2C(=O)C2=C(O)[C@]3(O)C(=O)C(C(N)=O)=C(O)[C@@H](N(C)C)[C@@H]3[C@@H](O)[C@@H]21` [dox, doxycycline], for which the dox-mediated toxicity entry was “several mice died”.
